According to article PMC10100771, “A Novel CMY Variant Confers Transferable High-Level Resistance to Ceftazidime-Avibactam in Multidrug-Resistant Escherichia coli” (Microbiology Spectrum, 2023):
Converted amounts (≈) assume the structure as drawn.

Columns and labels:
E. coli strain AR13438 = assay: MIC by agar dilution, clinical isolate AR13438; format: cell-based, Escherichia coli; conditions: for MIC: Escherichia coli, AR13438, clinical E. coli isolate (blaCMY-178, blaTEM-1, blaCTX-M-27), agar dilution; for Antimicrobial susceptibility category: AR13438, CLSI breakpoints (M100, 31st edition)
Method: (§1) Antimicrobial susceptibility testing was performed and interpreted according to the Clinical and Laboratory Standards Institute (CLSI) guidelines and breakpoints (M100, 31st edition) by the agar dilution method. E. coli ATCC 25922 and K. pneumoniae ATCC 700603 served as control strains.
(§2) The antibiotics we used included meropenem (Hanhui Pharmaceutical Co., Ltd., China), imipenem (Merck Sharp & Dohme Corp., USA), cefepime (Jiangsu Hengrui Pharmaceutical Co., Ltd., China), piperacillin (Suzhou Erye Pharmaceutical Co., Ltd., China), ceftazidime (Guangdong Jincheng Jinsu Pharmaceutical Co., Ltd., China), tazobactam (Meilunbio, China), avibactam (MedChemExpress, USA), aztreonam (Sigma-Aldrich, USA), amikacin (Meilunbio), cefuroxime (Esseti Farmaceutici S.r.l., Italy), fosfomycin (Harbin Pharmaceutical Group Co., Ltd. China), levofloxacin (Daiichi Sankyo Company Limited, Beijing, China), and cefotaxime (North China Pharmaceutical Hebei Huamin Pharmaceutical Co., Ltd., China).

E. coli DH5α = assay: MIC by agar dilution, E. coli DH5α; format: cell-based; conditions: Escherichia coli
Method: as §1, §2

[1] = test system: K. pneumoniae isolate KPCZA02; assay: microbe, parasite or virus in culture; format: cell-based; conditions: Klebsiella pneumoniae
Method: as §1

E. coli J53 = assay: MIC by agar dilution, recipient E. coli J53; format: cell-based; conditions: Escherichia coli
Method: as §1, §2
(§3) Conjugation experiments were performed by filter mating using sodium-azide-resistant E. coli J53 as the recipient, as described previously. Transconjugants were selected with MH agar containing 100 μg/mL sodium azide and 4 μg/mL ceftazidime-avibactam; furthermore, transconjugants were named J53-AR13438 and J53-KPCZA02, respectively. We compared genomes of AR13438 and J53 to select a unique gene (gtrA) to J53. The blaCMY-178-postive transconjugants were confirmed by PCR and MALDI-TOF MS (see Fig. S9 in the supplemental material). The primers used for PCR were gtrA-F, gtrA-R, CMY-F, and CMY-R (Table S1). The transfer frequencies were calculated as the number of transconjugants (CFU/mL) divided by the number of recipients (CFU/mL). Donors and recipients were mixed at 1:1 for the transfer frequency experiment. S1-PFGE and Southern blotting were performed to define the location of blaCMY-178 and confirm the transmission of the plasmid as described previously ([35]). The MIC profiles of transconjugants were also determined by the agar dilution method.

E. coli J53-KPCZA02 = assay: MIC by agar dilution, conjugant containing pKPCZA02_4; format: cell-based; conditions: Escherichia coli, J53KPCZA02, E. coli J53-KPCZA02 (blaCMY-172)
Method: as §1
as §3, with “The blaCMY-178-postive transconjugants were confirmed by PCR and MALDI-TOF MS (see Fig. S9 in the supplemental material).” left out

[2] = test system: E. coli DH5α-pCR2.1-CMY-2; assay: MIC by agar dilution, transformant containing blaCMY-2; format: cell-based; conditions: Escherichia coli
[3] = test system: E. coli DH5α-pCR2.1-CMY-172; assay: MIC by agar dilution, transformant containing blaCMY-172; format: cell-based; conditions: Escherichia coli
Method: as §1, §2
(§4) The blaCMY cloning was performed using a TA cloning kit (Invitrogen, Shanghai, China). The blaCMY-178 gene combined with its predicted promoter was amplified from isolate AR13438. Then, the blaCMY-178 gene was cloned into the linearized vector pCR2.1 using T4 DNA ligase (Invitrogen). The blaCMY-172 gene was cloned from KPCZA02 with the same method. The resulting plasmids were chemically transformed into E. coli DH5α. The positive transformants were identified by blue-white screening in MH agar containing 50 μg/mL kanamycin and were further confirmed by Sanger sequencing. The pCR2.1 blank vector was also transformed into E. coli DH5α as a control. The primers used for cloning were CMY-F and CMY-R (see Table S2 in the supplemental material). Relative CMY expression was measured by reverse transcription-quantitative PCR as described previously ([34]). Specific quantitative PCR (qPCR) primers (q-recA-F/R and q-CMY-F/R) were designed (Table S2).

E. coli J53-AR13438 = assay: MIC by agar dilution, conjugant containing pAR13438_2; format: cell-based; conditions: Escherichia coli, J53AR13438, E. coli J53-AR13438 (blaCMY-178)
Method: as §1
as §3, with “The blaCMY-178-postive transconjugants were confirmed by PCR and MALDI-TOF MS (see Fig. S9 in the supplemental material).” left out

E. coli DH5α-pCR2.1 = assay: MIC by agar dilution, DH5α with blank vector pCR2.1; format: cell-based; conditions: Escherichia coli
Method: as §1, §2, §4

[4] = test system: E. coli DH5α-pCR2.1-CMY-178; assay: MIC by agar dilution, transformant containing blaCMY-178; format: cell-based, Escherichia coli; conditions: for MIC: Escherichia coli, E. coli DH5α-pCR2.1-CMY-178, agar dilution; for Increase of MIC by blaCMY-178 compared with blaCMY-172: transformants in E. coli DH5α
Method: as §1, §2, §4

CO/N=C(\C(=O)N[C@@H]1C(=O)N2C(C(=O)O)=C(COC(C)=O)CS[C@H]12)c1csc(N)n1 [CTX, cefotaxime]
MIC (E. coli strain AR13438): > 128 µg/mL
MIC (E. coli DH5α): 0.03 µg/mL (≈ 0.0659 µM)
MIC [1]: > 128 µg/mL
MIC (E. coli J53): 0.06 µg/mL (≈ 0.132 µM)
MIC (E. coli J53-KPCZA02): 16 µg/mL (≈ 35.1 µM)
MIC [2]: 32 µg/mL (≈ 70.3 µM)
MIC [3]: 32 µg/mL (≈ 70.3 µM)
MIC (E. coli J53-AR13438): 32 µg/mL (≈ 70.3 µM)
MIC (E. coli DH5α-pCR2.1): 0.06 µg/mL (≈ 0.132 µM)
MIC [4]: 128 µg/mL (≈ 281 µM)
Increase of MIC by blaCMY-178 compared with blaCMY-172 [4]: 4 fold

CO/N=C(\C(=O)N[C@@H]1C(=O)N2C(C(=O)O)=C(COC(N)=O)CS[C@H]12)c1ccco1 [CXM, cefuroxime]
MIC (E. coli strain AR13438): > 1020 µg/mL
MIC (E. coli DH5α): 4 µg/mL (≈ 9.43 µM)
MIC [1]: > 1020 µg/mL
MIC (E. coli J53): 16 µg/mL (≈ 37.7 µM)
MIC (E. coli J53-KPCZA02): 256 µg/mL (≈ 603 µM)
MIC [2]: 128 µg/mL (≈ 302 µM)
MIC [3]: 64 µg/mL (≈ 151 µM)
MIC (E. coli J53-AR13438): 256 µg/mL (≈ 603 µM)
MIC (E. coli DH5α-pCR2.1): 4 µg/mL (≈ 9.43 µM)
MIC [4]: 1020 µg/mL (≈ 2410 µM)
Increase of MIC by blaCMY-178 compared with blaCMY-172 [4]: over 4 fold

CO/N=C(\C(=O)N[C@@H]1C(=O)N2C(C(=O)[O-])=C(C[N+]3(C)CCCC3)CS[C@H]12)c1csc(N)n1 [FEP, cefepime]
MIC (E. coli strain AR13438): 128 µg/mL (≈ 266 µM)
MIC (E. coli DH5α): 0.06 µg/mL (≈ 0.125 µM)
MIC [1]: > 128 µg/mL
MIC (E. coli J53): 0.06 µg/mL (≈ 0.125 µM)
MIC (E. coli J53-KPCZA02): 32 µg/mL (≈ 66.6 µM)
MIC [2]: 2 µg/mL (≈ 4.16 µM)
MIC [3]: 16 µg/mL (≈ 33.3 µM)
MIC (E. coli J53-AR13438): 32 µg/mL (≈ 66.6 µM)
MIC (E. coli DH5α-pCR2.1): 0.12 µg/mL (≈ 0.25 µM)
MIC [4]: 64 µg/mL (≈ 133 µM)
Increase of MIC by blaCMY-178 compared with blaCMY-172 [4]: 4 fold

C[C@@H](O)[C@H]1C(=O)N2C(C(=O)O)=C(SCCN=CN)C[C@H]12 [IMP, imipenem]
MIC (E. coli strain AR13438): 1 µg/mL (≈ 3.34 µM)
MIC (E. coli DH5α): 0.25 µg/mL (≈ 0.835 µM)
MIC [1]: 64 µg/mL (≈ 214 µM)
MIC (E. coli J53): 0.5 µg/mL (≈ 1.67 µM)
MIC (E. coli J53-KPCZA02): 0.5 µg/mL (≈ 1.67 µM)
MIC (E. coli J53-AR13438): 0.5 µg/mL (≈ 1.67 µM)

C[C@@H]1O[C@@H]1P(=O)(O)O [FOS, fosfomycin]
MIC (E. coli strain AR13438): 1 µg/mL (≈ 7.24 µM)
MIC (E. coli DH5α): 0.25 µg/mL (≈ 1.81 µM)
MIC [1]: > 1020 µg/mL
MIC (E. coli J53): 0.5 µg/mL (≈ 3.62 µM)
MIC (E. coli J53-KPCZA02): 0.5 µg/mL (≈ 3.62 µM)
MIC (E. coli J53-AR13438): 0.5 µg/mL (≈ 3.62 µM)
MIC (E. coli DH5α-pCR2.1): 0.25 µg/mL (≈ 1.81 µM)

CC(C)(O/N=C(\C(=O)N[C@@H]1C(=O)N2C(C(=O)[O-])=C(C[N+]3(CCNC(=O)c4ccc(O)c(O)c4Cl)CCCC3)CS[C@H]12)c1csc(N)n1)C(=O)O [CFDC, cefiderocol]
Antimicrobial susceptibility category (E. coli strain AR13438): susceptible
MIC (E. coli strain AR13438): 0.25 µg/mL (≈ 0.332 µM)
MIC (E. coli DH5α): < 0.03 µg/mL
MIC [1]: 1 µg/mL (≈ 1.33 µM)
MIC [2]: 0.125 µg/mL (≈ 0.166 µM)
MIC [3]: 1 µg/mL (≈ 1.33 µM)
MIC (E. coli DH5α-pCR2.1): < 0.03 µg/mL
MIC [4]: 1 µg/mL (≈ 1.33 µM)

CCN1CCN(C(=O)N[C@@H](C(=O)N[C@@H]2C(=O)N3[C@@H]2SC(C)(C)[C@@H]3C(=O)O)c2ccccc2)C(=O)C1=O [PIP, piperacillin]
MIC (E. coli strain AR13438): > 256 µg/mL
MIC (E. coli DH5α): 1 µg/mL (≈ 1.93 µM)
MIC [1]: > 256 µg/mL
MIC (E. coli J53): 4 µg/mL (≈ 7.73 µM)
MIC (E. coli J53-KPCZA02): 64 µg/mL (≈ 124 µM)
MIC [2]: 256 µg/mL (≈ 495 µM)
MIC [3]: 256 µg/mL (≈ 495 µM)
MIC (E. coli J53-AR13438): 64 µg/mL (≈ 124 µM)
MIC (E. coli DH5α-pCR2.1): 1 µg/mL (≈ 1.93 µM)
MIC [4]: 256 µg/mL (≈ 495 µM)

C[C@@H](O)[C@H]1C(=O)N2C(C(=O)O)=C(S[C@@H]3CN[C@H](C(=O)N(C)C)C3)[C@H](C)[C@H]12 [MEM, meropenem]
MIC (E. coli strain AR13438): 0.125 µg/mL (≈ 0.326 µM)
MIC (E. coli DH5α): 0.03 µg/mL (≈ 0.0782 µM)
MIC [1]: 128 µg/mL (≈ 334 µM)
MIC (E. coli J53): 0.03 µg/mL (≈ 0.0782 µM)
MIC (E. coli J53-KPCZA02): 0.06 µg/mL (≈ 0.156 µM)
MIC [3]: 0.06 µg/mL (≈ 0.156 µM)
MIC (E. coli J53-AR13438): 0.06 µg/mL (≈ 0.156 µM)
MIC (E. coli DH5α-pCR2.1): 0.03 µg/mL (≈ 0.0782 µM)
MIC [4]: 0.06 µg/mL (≈ 0.156 µM)

NCC[C@H](O)C(=O)N[C@@H]1C[C@H](N)[C@@H](O[C@H]2O[C@H](CN)[C@@H](O)[C@H](O)[C@H]2O)[C@H](O)[C@H]1O[C@H]1O[C@H](CO)[C@@H](O)[C@H](N)[C@H]1O [AMK, amikacin]
Antimicrobial susceptibility category (E. coli strain AR13438): resistant
MIC (E. coli strain AR13438): > 256 µg/mL
MIC (E. coli DH5α): 1 µg/mL (≈ 1.71 µM)
MIC [1]: > 256 µg/mL
MIC (E. coli J53): 2 µg/mL (≈ 3.42 µM)
MIC (E. coli J53-KPCZA02): 2 µg/mL (≈ 3.42 µM)
MIC [3]: 2 µg/mL (≈ 3.42 µM)
MIC (E. coli J53-AR13438): 2 µg/mL (≈ 3.42 µM)
MIC (E. coli DH5α-pCR2.1): 1 µg/mL (≈ 1.71 µM)

C[C@H]1COc2c(N3CCN(C)CC3)c(F)cc3c(=O)c(C(=O)O)cn1c23 [LEV, levofloxacin]
Antimicrobial susceptibility category (E. coli strain AR13438): resistant
MIC (E. coli strain AR13438): 32 µg/mL (≈ 88.6 µM)
MIC (E. coli DH5α): 0.03 µg/mL (≈ 0.083 µM)
MIC [1]: 32 µg/mL (≈ 88.6 µM)
MIC (E. coli J53): 0.03 µg/mL (≈ 0.083 µM)
MIC (E. coli J53-KPCZA02): 0.03 µg/mL (≈ 0.083 µM)
MIC [2]: 0.06 µg/mL (≈ 0.166 µM)
MIC (E. coli J53-AR13438): 0.03 µg/mL (≈ 0.083 µM)
MIC (E. coli DH5α-pCR2.1): 0.03 µg/mL (≈ 0.083 µM)
MIC [4]: 0.06 µg/mL (≈ 0.166 µM)

C[C@H]1[C@H](NC(=O)/C(=N\OC(C)(C)C(=O)O)c2csc(N)n2)C(=O)N1S(=O)(=O)O [ATM, aztreonam]
MIC (E. coli strain AR13438): 32 µg/mL (≈ 73.5 µM)
MIC (E. coli DH5α): 0.06 µg/mL (≈ 0.138 µM)
MIC (E. coli J53): 0.12 µg/mL (≈ 0.276 µM)
MIC [2]: 32 µg/mL (≈ 73.5 µM)
MIC [3]: 8 µg/mL (≈ 18.4 µM)
MIC (E. coli J53-AR13438): 32 µg/mL (≈ 73.5 µM)
MIC (E. coli DH5α-pCR2.1): 0.12 µg/mL (≈ 0.276 µM)
MIC [4]: 32 µg/mL (≈ 73.5 µM)
Increase of MIC by blaCMY-178 compared with blaCMY-172 [4]: 4 fold
